Measurements as given in ChEMBL document CHEMBL5096216, “Rational Design, Synthesis, and Biological Evaluation of Novel S1PR2 Antagonists for Reversing 5-FU-Resistance in Colorectal Cancer” (J Med Chem, 2022).

Tests used:
HT-29 [1] = assay: Reversal of 5-FU resistance in human HT-29 cells assessed as reduction in cell viability incubated for 48 hrs in presence of 5-FU by MTT assay; format: functional, cell-based; conditions: HT-29, 48 h; further: test concentration or dose not given here
[2] = Cytotoxicity against human NCM460 cells assessed as reduction in cell viability incubated for 48 hrs by MTT assay; format: toxicity, cell-based
[3] = molecular target: Sphingosine 1-phosphate receptor 5 (Homo sapiens, UniProt Q9H228); assay: Binding affinity to S1PR5 (unknown origin) assessed as dissociation constant by surface plasmon resonance analysis
HCT-116 [4] = assay: Reversal of 5-FU resistance in human HCT-116 cells overexpressing DPD assessed as reduction in cell viability incubated for 48 hrs in presence of 5-FU by MTT assay; format: functional, cell-based; conditions: HCT-116, 48 h; further: test concentration or dose not given here
[5] = molecular target: T1, Sphingosine 1-phosphate receptor 4 (Homo sapiens, UniProt O95977); assay: Binding affinity to S1PR4 (unknown origin) assessed as dissociation constant by surface plasmon resonance analysis
T1 sequence (O95977 whole entry): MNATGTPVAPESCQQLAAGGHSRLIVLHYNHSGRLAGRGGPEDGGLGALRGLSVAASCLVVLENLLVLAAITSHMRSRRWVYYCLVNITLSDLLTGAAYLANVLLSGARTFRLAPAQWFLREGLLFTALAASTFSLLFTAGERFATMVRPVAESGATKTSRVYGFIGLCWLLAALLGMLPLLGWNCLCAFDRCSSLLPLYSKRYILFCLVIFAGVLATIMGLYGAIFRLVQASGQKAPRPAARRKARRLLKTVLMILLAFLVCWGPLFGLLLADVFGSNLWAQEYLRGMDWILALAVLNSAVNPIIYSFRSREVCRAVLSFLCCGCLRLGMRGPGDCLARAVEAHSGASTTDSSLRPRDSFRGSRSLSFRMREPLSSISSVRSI

SW620/5-FU [6] = assay: Antiproliferative activity against human SW620/5-FU cells assessed as reduction in cell viability incubated for 48 hrs by MTT assay; format: functional, cell-based
SW620/5-FU [7] = assay: Reversal of 5-FU resistance in human SW620/5-FU cells assessed as reduction in cell viability incubated for 48 hrs in presence of 5-FU by MTT assay; format: functional, cell-based; further: test concentration or dose not given here
HT-29 [8] = assay: Antiproliferative activity against human HT-29 cells assessed as reduction in cell viability incubated for 48 hrs by MTT assay; format: functional, cell-based; conditions: HT-29, 48 h
[9] = molecular target: Sphingosine 1-phosphate receptor 2 (Homo sapiens, UniProt O95136); assay: Binding affinity to S1PR2 (unknown origin) assessed as dissociation constant by surface plasmon resonance analysis
HCT-116 [10] = assay: Antiproliferative activity against human HCT-116 cells overexpressing DPD assessed as reduction in cell viability incubated for 48 hrs by MTT assay; format: functional, cell-based; conditions: HCT-116, 48 h
[11] = molecular target: Sphingosine 1-phosphate receptor 1 (Homo sapiens, UniProt P21453); assay: Binding affinity to S1PR1 (unknown origin) assessed as dissociation constant by surface plasmon resonance analysis
[12] = molecular target: Sphingosine 1-phosphate receptor 3 (Homo sapiens, UniProt Q99500); assay: Binding affinity to S1PR3 (unknown origin) assessed as dissociation constant by surface plasmon resonance analysis
NCM460 = assay: Cytotoxicity against human NCM460 cells assessed as reduction in cell viability incubated for 48 hrs in presence of 5-FU by MTT assay; format: functional, cell-based; conditions: NCM460, 48 h

Chain of Sphingosine 1-phosphate receptor 5 (Q9H228 whole entry): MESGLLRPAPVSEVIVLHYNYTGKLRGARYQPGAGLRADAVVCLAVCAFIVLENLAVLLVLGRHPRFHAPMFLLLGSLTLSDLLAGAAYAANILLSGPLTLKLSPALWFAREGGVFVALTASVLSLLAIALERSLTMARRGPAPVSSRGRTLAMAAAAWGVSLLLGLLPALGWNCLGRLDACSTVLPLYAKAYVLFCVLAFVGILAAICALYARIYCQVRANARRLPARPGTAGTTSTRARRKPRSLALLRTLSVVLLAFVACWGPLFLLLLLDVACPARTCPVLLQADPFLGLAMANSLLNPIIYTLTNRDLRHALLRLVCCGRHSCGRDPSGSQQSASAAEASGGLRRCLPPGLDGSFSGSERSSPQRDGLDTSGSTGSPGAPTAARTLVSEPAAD
Chain of Sphingosine 1-phosphate receptor 2 (O95136 whole entry): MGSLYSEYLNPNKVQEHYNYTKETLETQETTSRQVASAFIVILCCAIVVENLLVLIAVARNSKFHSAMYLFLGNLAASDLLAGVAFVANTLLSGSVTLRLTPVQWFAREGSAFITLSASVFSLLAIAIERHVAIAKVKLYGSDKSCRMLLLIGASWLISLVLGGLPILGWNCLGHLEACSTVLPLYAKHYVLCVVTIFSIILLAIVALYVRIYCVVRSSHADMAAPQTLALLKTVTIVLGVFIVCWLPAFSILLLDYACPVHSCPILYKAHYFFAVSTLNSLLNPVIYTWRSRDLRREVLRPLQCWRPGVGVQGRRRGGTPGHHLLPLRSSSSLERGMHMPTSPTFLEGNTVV
Chain of Sphingosine 1-phosphate receptor 1 (P21453 whole entry): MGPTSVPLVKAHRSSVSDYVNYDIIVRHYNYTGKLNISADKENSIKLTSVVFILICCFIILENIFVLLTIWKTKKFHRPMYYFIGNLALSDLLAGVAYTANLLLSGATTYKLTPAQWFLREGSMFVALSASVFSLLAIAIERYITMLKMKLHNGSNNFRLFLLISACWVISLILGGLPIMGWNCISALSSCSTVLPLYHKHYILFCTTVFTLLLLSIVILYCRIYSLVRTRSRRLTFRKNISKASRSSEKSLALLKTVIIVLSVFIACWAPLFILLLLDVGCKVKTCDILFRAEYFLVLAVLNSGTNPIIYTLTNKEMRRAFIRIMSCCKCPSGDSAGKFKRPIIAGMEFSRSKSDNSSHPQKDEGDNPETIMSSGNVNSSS
Chain of Sphingosine 1-phosphate receptor 3 (Q99500 whole entry): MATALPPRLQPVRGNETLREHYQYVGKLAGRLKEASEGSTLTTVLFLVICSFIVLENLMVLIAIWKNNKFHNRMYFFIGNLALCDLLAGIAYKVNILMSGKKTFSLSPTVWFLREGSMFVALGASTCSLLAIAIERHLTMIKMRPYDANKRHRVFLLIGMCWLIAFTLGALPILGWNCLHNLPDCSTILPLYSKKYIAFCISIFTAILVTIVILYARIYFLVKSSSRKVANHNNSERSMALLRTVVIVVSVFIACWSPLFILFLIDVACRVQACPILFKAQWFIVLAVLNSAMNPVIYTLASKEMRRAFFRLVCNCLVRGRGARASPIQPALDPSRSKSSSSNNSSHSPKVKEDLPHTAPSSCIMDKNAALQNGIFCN

Work on `CCC(CC)CC1(O)CCN(C(=O)Nc2cc(Oc3ccncc3)cc(Oc3ccc(F)cc3)c2)CC1` yielded an IC50 (HT-29 [1]) of 8560 nM, an IC50 at 48 hrs [2] greater than 100000 nM and a Kd [3] greater than 100 nM. It also gave an IC50 (HCT-116 [4]) of 2160 nM, a Kd [5] greater than 100 nM and an IC50 (SW620/5-FU [6]) of 18700 nM. The IC50 (SW620/5-FU [7]) was 2940 nM, the IC50 (HT-29 [8]) was 55400 nM and the Kd [9] was 0.98 nM. It also gave an IC50 (HCT-116 [10]) of 49200 nM, a Kd [11] greater than 100 nM and a Kd [12] greater than 100 nM. The IC50 (NCM460) was greater than 100000 nM.
For `CCC(CC)CN1CCN(C(=O)Nc2cc(Oc3ccc(F)cc3)cc(Oc3ccc(C(=O)N(C)C)cc3)c2)CC1`, the Kd [9] was 55.6 nM.
`O=C(Nc1cc(Oc2ccncc2)cc(Oc2ccc(F)cc2)c1)Nc1cc(Cl)nc(Cl)c1` gave a Kd [9] of 8.76 nM.
Work on `O=C(Nc1cc(Oc2ccncc2)cc(Oc2ccc(F)cc2)c1)N1CCC(O)(c2ccc(Cl)cc2)CC1` yielded a Kd [9] of 66.9 nM.
`CNC(=O)c1ccc(Oc2cc(NC(=O)N3CCN(C(=O)c4ccc(F)cc4)CC3)cc(Oc3ccc(F)cc3)c2)cc1` gave a Kd [9] of 94.3 nM.
`CCC(CC)CN1CCN(C(=O)Nc2cc(Oc3ccc(F)cc3)cc(Oc3ccc(C(=O)NC4CCCCC4)cc3)c2)CC1` gave a Kd [9] of 12.7 nM.
Work on `CCC(CC)CN1CCN(C(=O)Nc2cc(Oc3ccc(F)cc3)cc(Oc3ccc(C(=O)N4CCN(C)CC4)cc3)c2)CC1` yielded an IC50 (HT-29 [1]) of 5740 nM, an IC50 at 48 hrs [2] greater than 100000 nM and a Kd [3] greater than 100 nM. For the same compound, the IC50 (HCT-116 [4]) was 3960 nM, the Kd [5] was greater than 100 nM and the IC50 (SW620/5-FU [6]) was greater than 100000 nM. The IC50 (SW620/5-FU [7]) was 3560 nM, the IC50 (HT-29 [8]) was greater than 100000 nM and the Kd [9] was 0.69 nM. For the same compound, the IC50 (HCT-116 [10]) was greater than 100000 nM, the Kd [11] was greater than 100 nM and the Kd [12] was greater than 100 nM. It also gave an IC50 (NCM460) greater than 100000 nM.
Work on `O=C(Nc1cc(Oc2ccc(F)cc2)cc(Oc2ccc(F)cc2)c1)Nc1cc(Cl)nc(Cl)c1` yielded a Kd [9] of 7.48 nM.
Compound `CCC(CC)CC1(O)CCN(C(=O)Nc2cc(Oc3ccc(F)cc3)cc(Oc3ccc(C(=O)NC)cc3)c2)CC1` has a Kd [9] of 4.15 nM.
Compound `CNC(=O)c1ccc(Oc2cc(NC(=O)N3CCN(Cc4ccc(F)cc4)CC3)cc(Oc3ccc(F)cc3)c2)cc1` has a Kd [9] greater than 1000 nM.
`CCC(CC)CN1CCN(C(=O)Nc2cc(Oc3ccc(F)cc3)cc(Oc3ccc(C(=O)O)cc3)c2)CC1` showed an IC50 (HT-29 [1]) of 5130 nM, an IC50 at 48 hrs [2] greater than 100000 nM and a Kd [3] greater than 100 nM. It also gave an IC50 (HCT-116 [4]) of 2650 nM, a Kd [5] greater than 100 nM and an IC50 (SW620/5-FU [6]) greater than 100000 nM. For the same compound, the IC50 (SW620/5-FU [7]) was 2150 nM, the IC50 (HT-29 [8]) was greater than 100000 nM and the Kd [9] was 0.88 nM. The IC50 (HCT-116 [10]) was greater than 100000 nM, the Kd [11] was greater than 100 nM and the Kd [12] was greater than 100 nM. It also gave an IC50 (NCM460) greater than 100000 nM.
For `CCC(CC)CC1(O)CCN(C(=O)Nc2cc(Oc3ccc(F)cc3)cc(Oc3ccc(C(=O)N(C)C)cc3)c2)CC1`, the Kd [9] was 6.62 nM.
`CCC(CC)CN1CC2CN(C(=O)Nc3cc(Oc4ccc(F)cc4)cc(Oc4ccc(C(=O)NC)cc4)c3)CC2C1` (stereo not drawn) gave a Kd [9] greater than 1000 nM.
Work on `CNC(=O)c1ccc(Oc2cc(NC(=O)N3CCN(S(=O)(=O)c4ccc(C)cc4)CC3)cc(Oc3ccc(F)cc3)c2)cc1` yielded a Kd [9] greater than 1000 nM.
With `CCC(CC)CN1CCN(C(=O)Nc2cc(Oc3ccncc3)cc(Oc3ccc(F)cc3)c2)CC1` the IC50 (HT-29 [1]) was greater than 100000 nM, the IC50 at 48 hrs [2] was greater than 100000 nM and the Kd [3] was greater than 100 nM. The IC50 (HCT-116 [4]) was 2860 nM, the Kd [5] was greater than 100 nM and the IC50 (SW620/5-FU [6]) was 25200 nM. For the same compound, the IC50 (SW620/5-FU [7]) was 5840 nM, the IC50 (HT-29 [8]) was greater than 100000 nM and the Kd [9] was 0.89 nM. It also gave an IC50 (HCT-116 [10]) greater than 100000 nM, a Kd [11] greater than 100 nM and a Kd [12] greater than 100 nM. It also gave an IC50 (NCM460) greater than 100000 nM.
Compound `CNC(=O)c1ccc(Oc2cc(NC(=O)N3CCN(c4ccc(OC)cc4)CC3)cc(Oc3ccc(F)cc3)c2)cc1` has a Kd [9] of 21.5 nM.
`C#CCNC(=O)c1ccc(Oc2cc(NC(=O)N3CCN(CC(CC)CC)CC3)cc(Oc3ccc(F)cc3)c2)cc1` gave a Kd [9] greater than 1000 nM.
For `CNC(=O)c1ccc(Oc2cc(NC(=O)N3CCC(O)(c4ccc(Cl)cc4)CC3)cc(Oc3ccc(F)cc3)c2)cc1`, the Kd [9] was 5.16 nM.
In the case of `CCC(CC)CN1CCCN(C(=O)Nc2cc(Oc3ccc(F)cc3)cc(Oc3ccc(C(=O)NC)cc3)c2)CC1`, the Kd [9] is reported as greater than 1000 nM.
`O=C(Nc1cc(Cl)nc(Cl)c1)Nc1cc(Cl)nc(Cl)c1` gave a Kd [9] of 13.2 nM.
